Source: US12377110B2, “Fospropofol methods and compositions” (Epalex Corporation, priority 2019, dated 2025)
“And” between values parts separate entries of the source, which are not always exact repeats. Identical values can stand only once. Counter-ions that a name gives are not always drawn. Like-named read-outs stand apart in the source and are kept apart here.

What was measured:
[1] = assay type: physicochemical; conditions: for XRPD Analysis Post Dissolution: after IDR at pH 4.5; for Average pH: during IDR run, 36 ml water and 4 ml GI media; for Average pH / IDR Average / IDR Duplicate: pH set to 4.5, 37° C.; for IDR Average / IDR Duplicate: 3 mm disc, 100 rpm; for IDR Average: average of duplicate; for IDR Duplicate: individual duplicate values
Protocol: Intrinsic Dissolution Rate was measure in GI tract buff (pH—4.5 buffer): 2.99 g sodium acetate trihydrate was dissolved in 14.0 ml 2N acetic acid in a 1000 ml volumetric flask, and then made to volume with deionised water.
(§1) Data were collected on a Sirius inform instrument fitted with a dual UV DipProbe attachment and Ag/AgCI combination pH electrode. The electrode was calibrated using the four plus parameters derived from a blank titration. The base titrant was standardised by titration with TRIS. 0.5 M HCl and NaOHaqueous solutions were used as the acid and base titrants respectively for the testing. Stirring was facilitated by a dual overhead stirrer to allow thorough mixing within the vessel, and media was introduced via a capillary bundle attached to a dispensing bank comprised of six precision dispensing units. A Peltier heating jacket was used to maintain the temperature of the titration vessel. Discs were introduced to the vessel via the tablet picker housed in the probe arm, after the desired temperature of the media had been reached. Sirius inform Assay Design, Control and Refine software were used to design, run and refine data respectively.
(§2) One MEC data sets were then collected using five additions each of the water stock using 250, 500 and three times 750 μI aliquots, respectively. UV Spectra were then collected after each addition of the water stock to build a multi-point MEC calibration, using a 20 mm path length probe. The MEC data set was then imported into the dissolution data files in order to convert the UV absorbance measured to concentration. […] MEC data were collected at 37° C. to match the dissolution experiments.
(§3) Intrinsic Dissolution Rate (IDR): Approximately. 10-20 mg of the sample was compressed in a 3 mm disc recess, under 100 kg for 2 minutes, with greaseproof paper on the compression base, to form nondisintegrating discs. The discs were then plugged with a bung so that only one surface was exposed to the media during analysis and transferred to the Sirius inform dissolution apparatus. Analysis was performed at 37° C. in 36 ml water and 4 ml GI media with the pH set to 4.5, for 1 hour with UV spectra collected every 10 seconds. A stir speed of 100 rpm was used with a 20 mm path length probe. The IDR was calculated based on the surface area of the 3 mm disc recess used (7.07 mm2 surface area). XRPD analysis was performed on all samples, both after compression of the material into the disc recess, and post dissolution analysis to observe any change in form. All analysis was performed using XRPD 2.
(§4) X-Ray Powder Diffraction (XRPD2): XRPD diffractograms were collected on a Bruker AXS C2 GADDS diffractometer using Cu Ka radiation (40 kV, 40 mA), an automated XYZ stage, a laser video microscope for auto sample positioning and a Vantec-500 2-dimensional area detector. X-ray optics consists of a single Gobel multilayer mirror coupled with a pinhole collimator of 0.3 mm. The beam divergence, i.e. the effective size of the X-ray beam on the sample, was approximately 4 mm. […] The sample was exposed to the X-ray beam for 120 seconds under ambient conditions. The software used for data collection and analysis was GADDS for Win7/XP and Diffrac Plus EVA respectively.

[2] = assay type: physicochemical; conditions: for XRPD Analysis Post Dissolution: after IDR in faSSGf; for Average pH: during IDR run in 40 ml faSSGf media; for Average pH / IDR Average / IDR Duplicate: 37° C.; for IDR Average / IDR Duplicate: faSSGf media, 3 mm disc, 100 rpm; for IDR Average: average of duplicate; for IDR Duplicate: individual duplicate values
Protocol: Intrinsic Dissolution Rate was Determined in Simulated Intestinal Fluid at pH Base Buffer (FaSSGF):
Sodium chloride (2.0 g) and deionized water added to a 1000 ml volumetric flask, pH adjusted to 1.6 with concentrated hydrochloric […] acid, made up to volume with deionised water.
Phares SIF (simulated intestinal fluid) powder (0.06 g) was added to a 1 L volumetric flask and made to volume with base buffer.
as §1, with “Dip Probe” for “DipProbe”, “NaOH aqueous” for “NaOHaqueous”
as §2, with “were collected in the dissolution media {faSSGf) and at 37°” for “were collected at 37°”
as §3, with “10-20” for “Intrinsic Dissolution Rate (IDR): Approximately. 10-20”, “in 40” for “in 36”, “ml faSSGf” for “ml water and 4 ml GI”, “media” for “media with the pH set to 4.5,”, “every 30” for “every 10”
as §4

[3] = XRPD after 7 days storage at 40° C./75% RH; assay type: physicochemical
Protocol: XRPD was again taken after 7 days storage at 40° C./75% RH. Form II of the diethylamine salt and Form II of the ethanolamine salt were formed by conversion of Form I of the respective salts after 7 days storage at 40° C./75% RH.
Form II of the calcium salt was produced from Form I of the calcium salt after 7 days storage at 40° C./75% RH.

For [Ca] [Calcium], the “XRPD Analysis Post Dissolution” value [1] was “Amorphous”, the “Average pH” value [1] was 4.5 and the “IDR Average” value [1] was 0.44 mg/min/cm^2. For the same compound, the “IDR Duplicate” value [1] was 0.51 mg/min/cm^2 and 0.37 mg/min/cm^2, the “XRPD Analysis Post Dissolution” value [2] was “Amorphous” and the “Average pH” value [2] was 1.8. For the same compound, the “IDR Average” value [2] was 1.2 mg/min/cm^2 and the “IDR Duplicate” value [2] was 1.15 mg/min/cm^2 and 1.14 mg/min/cm^2.
In the case of NCCN [Ethylene Diamine], the “XRPD Analysis Post Dissolution” value [1] is reported as “Amorphous”, the “Average pH” value [1] is reported as 4.5 and the “IDR Average” value [1] is reported as 0.77 mg/min/cm^2. For the same compound, the “IDR Duplicate” value [1] was 0.76 mg/min/cm^2 and 0.78 mg/min/cm^2, the “XRPD Analysis Post Dissolution” value [2] was “Amorphous” and the “Average pH” value [2] was 1.6. The “IDR Average” value [2] was 1.2 mg/min/cm^2 and the “IDR Duplicate” value [2] was 1.16 mg/min/cm^2 and 1.29 mg/min/cm^2.
In the case of [Mg] [Magnesium], the “XRPD Analysis Post Dissolution” value [1] is reported as “Amorphous”, the “Average pH” value [1] is reported as 4.5 and the “IDR Average” value [1] is reported as 0.46 mg/min/cm^2. The “IDR Duplicate” value [1] was 0.47 mg/min/cm^2 and 0.44 mg/min/cm^2, the “XRPD Analysis Post Dissolution” value [2] was “Amorphous” and the “Average pH” value [2] was 1.8. For the same compound, the “IDR Average” value [2] was 1.6 mg/min/cm^2 and the “IDR Duplicate” value [2] was 1.51 mg/min/cm^2 and 1.67 mg/min/cm^2.
In the case of CC(C)c1cccc(C(C)C)c1OCOP(=O)(O)O [calcium salt of fospropofol (Form I)], the “Solid form (XRPD) after storage, starting from Form I” value [3] is reported as “Form II”.
With Sodium the “Average pH” value [1] was 4.6, the “IDR Average” value [1] was 37 mg/min/cm^2 and the “IDR Duplicate” value [1] was 38.04 mg/min/cm^2 and 35.67 mg/min/cm^2. For the same compound, the “Average pH” value [2] was 1.8, the “IDR Average” value [2] was 43 mg/min/cm^2 and the “IDR Duplicate” value [2] was 41.5 mg/min/cm^2 and 44.2 mg/min/cm^2.
In the case of Zinc, the “XRPD Analysis Post Dissolution” value [1] is reported as “Amorphous”, the “Average pH” value [1] is reported as 4.5 and the “IDR Average” value [1] is reported as 0.18 mg/min/cm^2. The “IDR Duplicate” value [1] was 0.19 mg/min/cm^2 and 0.18 mg/min/cm^2, the “XRPD Analysis Post Dissolution” value [2] was “Amorphous” and the “Average pH” value [2] was 1.8. For the same compound, the “IDR Average” value [2] was 1.3 mg/min/cm^2 and the “IDR Duplicate” value [2] was 1.22 mg/min/cm^2 and 1.31 mg/min/cm^2.
